Measurements as given in patent US11813268B2, “Mitofusin activators and uses thereof” (Albert Einstein College of Medicine, priority 2017, dated 2023).
Peptide text beside a SMILES is read from it.

Tests used:
[1] = system: WT MEFs; assay: cells; settings: read-out: EC50 for inducing fusion (Mito AR); WT MEFs, mitochondrial aspect ratio
From the text: Next, it was visually examined if MASM7 could induce mitochondrial fusion in MEFs, using mitochondrial aspect ratio (mitochondrial length/width, reflecting fusion) as a readout. […] (FIG. 5).

[2] = target: T1, human Mfn2 (Homo sapiens, UniProt O95140); assay: FRET-based Mfn2 biosensor (wild type) in HEK 293T cells; assay type: cell-based; design: concentration or dose not given beside the values; settings: WT FRET-based Mfn2 biosensor, 2 h
T1 construct: expressed in transfected cells; host or cells: HEK 293T
T1 sequence (O95140 1-757): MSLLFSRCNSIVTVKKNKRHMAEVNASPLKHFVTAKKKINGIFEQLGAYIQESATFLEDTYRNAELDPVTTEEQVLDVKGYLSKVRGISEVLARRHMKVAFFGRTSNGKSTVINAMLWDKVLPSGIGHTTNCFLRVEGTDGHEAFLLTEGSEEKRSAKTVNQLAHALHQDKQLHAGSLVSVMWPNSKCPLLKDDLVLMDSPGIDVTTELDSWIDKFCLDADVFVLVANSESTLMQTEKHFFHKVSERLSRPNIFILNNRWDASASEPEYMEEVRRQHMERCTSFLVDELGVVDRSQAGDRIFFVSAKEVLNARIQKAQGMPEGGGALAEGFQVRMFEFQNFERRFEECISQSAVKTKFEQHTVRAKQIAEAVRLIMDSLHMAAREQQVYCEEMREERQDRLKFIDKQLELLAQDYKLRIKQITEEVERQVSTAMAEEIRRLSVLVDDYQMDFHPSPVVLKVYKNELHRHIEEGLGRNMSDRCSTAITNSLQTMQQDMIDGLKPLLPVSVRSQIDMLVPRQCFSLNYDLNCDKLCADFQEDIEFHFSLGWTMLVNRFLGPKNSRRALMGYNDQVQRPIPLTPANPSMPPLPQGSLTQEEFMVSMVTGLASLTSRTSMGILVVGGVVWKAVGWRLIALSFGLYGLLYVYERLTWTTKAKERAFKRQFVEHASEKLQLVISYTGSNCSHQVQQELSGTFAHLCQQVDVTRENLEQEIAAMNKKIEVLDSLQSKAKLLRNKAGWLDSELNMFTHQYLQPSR
Protocol: To generate FRET-based Mfn2 biosensor construct, pcDNA3.1-Flag-Mfn2 (5′Flag epitope cassette onto human Mfn2) was used as backbone, and mCerulean (cyan fluorescent protein; CFP) was fused onto 5′ of Mfn2 and mVenus (yellow fluorescent protein; YFP) onto 3′ of ORF of Mfn2 (20-22). […] Then, the mVenus fragment was fused into pcDNA3.1-Cerulean1-Mfn2 to generate pcDNA3.1-Cerulean1-Mfn2-mVenus with mega-mutagenesis PCR using mVenus fragment as mega primer. PCR conditions: lx 95° C. 10 min; 15×(95° C. 30 sec, […], 68° C. 18 min); 1×72° C. 10 min. The construct was confirmed by sequencing.
Cells were transfected with the total amount of 2.5 μg of DNA per well for the indicated Mfn2 FRET constructs using Lipofectamine® 3000 Reagent (Invitrogen) according to the manufacturer's protocol. The following day, transfected cells were transferred to a pre-coated with poly L-lysine 96-well black plate (2×10^4 cells/well). […] GTPγS (Sigma Aldrich) was used to inhibit GTPase activity of Mfn2. Subsequently, cells were treated for 2 h with MASMs or vehicle (0.1% DMSO). Dilutions of MASMs were performed using a TECAN D300e Digital Dispenser from 10 mM stock solutions. […] Acceptor/Donor ratio referred to the text and figures correspond to the ratio of fluorescence intensities (relative fluorescence units: RFU) detected by the acceptor filter/donor filter. Non-transfected cells were used to subtract background fluorescence from each of the aforementioned filters that were used in the study.
To evaluate the capacity of the selected hits to propel the pro-tethering conformation of Mfn2, a screening assay was developed based on a Forster resonance energy transfer (FRET) biosensor of Mfn2. […] Loss of intra-molecular HR1-HR2 interactions, occurring in the pro-tethering conformation of Mfn2, increase the distance between mCerulean and mVenus and lead to a decrease in the resonance energy that is transferred.

CC[C@H](C)[C@H](NC(=O)CNC(=O)[C@H](CCCNC(=N)N)NC(=O)[C@@H](NC(=O)[C@H](CCC(=O)O)NC(=O)[C@H](C)NC(=O)[C@@H](NC(=O)[C@@H](N)CCC(N)=O)[C@@H](C)CC)C(C)C)C(=O)N[C@@H](CCSC)C(=O)N[C@@H](CC(=O)O)C(=O)N[C@@H](CO)C(=O)N[C@@H](CC(C)C)C(=O)N[C@@H](Cc1c[nH]cn1)C(=O)N[C@@H](CCSC)C(=O)N[C@@H](C)C(=O)N[C@@H](C)C(=O)N[C@@H](CCCNC(=N)N)C(=O)NCC(=O)NCC(=O)N[C@@H](Cc1ccc(O)cc1)C(=O)NCC(=O)N[C@@H](CCCNC(=N)N)C(=O)N[C@@H](CCCCN)C(=O)N[C@@H](CCCCN)C(=O)N[C@@H](CCCNC(=N)N)C(=O)N[C@@H](CCCNC(=N)N)C(=O)N[C@@H](CCC(N)=O)C(=O)N[C@@H](CCCNC(=N)N)C(=O)N[C@@H](CCCNC(=N)N)C(=O)N[C@@H](CCCNC(=N)N)C(=O)O [367-384 Gly, reference compound] (H-QIAEVRGIMDSLHMAARGGYGRKKRRQRRR-OH)
EC50 [1]: 340 nM

Cc1cc(NC(=O)C(C)SCC(=O)Nc2ccc(NC(C)c3ccccc3)cc2)no1 (centres unmarked) [MASM1]
% of FRET reduction [2]: −5.3%

Cc1ccc(C(=O)C(C)Sc2nnc3c(=O)n(-c4ccc(Br)cc4)ccn23)cc1C (centres unmarked) [MASM2]
% of FRET reduction [2]: −0.5%

Cc1ccc(CSCCNC(=O)C2CCN(c3ccc4nnc(C(F)(F)F)n4n3)CC2)cc1 [MASM3]
% of FRET reduction [2]: −14.1%

CC(/N=N/C(=N)SC1CC(=O)N(c2cccc(C(=O)O)c2)C1=O)c1ccccc1 (centres unmarked) [MASM4]
% of FRET reduction [2]: −8.6%

CC(c1cccc([N+](=O)[O-])c1)N(C)CC(=O)NCCSCc1ccccc1C#N (centres unmarked) [MASM5]
% of FRET reduction [2]: 0%

CCC(SC1Cc2cc(OC)c(OC)cc2-c2nc(CCn3nc(C)cc3C)nn21)C(=O)Nc1ccc(F)cc1 (centres unmarked) [MASM6]
% of FRET reduction [2]: −0.7%

CC(Sc1nc(C2CC2)nc2c1c(=O)[nH]c(=O)n2C1CC1)C(=O)NCC1CCCCC1 (centres unmarked) [MASM8]
% of FRET reduction [2]: 1.2%

COc1ccc2c(c1)C1(SCCN1C(=O)c1ccccc1C)C(=O)N2Cc1cccc(C(F)(F)F)c1 (centres unmarked) [MASM9]
% of FRET reduction [2]: 1.1%

O=C(CSCc1ccc(F)cc1)N1CCc2c([nH]c3ccccc23)C1c1ccc(Cl)cc1 (centres unmarked) [MASM11]
% of FRET reduction [2]: 1.97%

c1ccc(CSCCc2nc(C3CCOC3)no2)cc1 (centres unmarked) [MASM12]
% of FRET reduction [2]: −4.5%

CC(=O)NC12CC3CC(C1)CC(C(=O)NCCSCc1ccc(C)cc1)(C3)C2 [MASM13]
% of FRET reduction [2]: −4.6%

CCC(C)NC(=O)c1ccccc1NC(=O)C(C)Sc1ccc(C)cc1 (centres unmarked) [MASM14]
% of FRET reduction [2]: −10%

S=C(NCCSCc1ccco1)NC1CC2CCC1C2 (centres unmarked) [MASM15]
% of FRET reduction [2]: −3.6%

O=C(NCCSCc1ccccc1)C1CCCCO1 (centres unmarked) [MASM16]
% of FRET reduction [2]: −11.2%

Cc1ccc(NC(=O)CC2SC(CC(c3ccc(C(C)C)cc3)c3c(O)[nH]c(=O)[nH]c3=O)=NC2=O)c(C)c1 (centres unmarked) [MASM17]
% of FRET reduction [2]: −5.9%

COc1ccc(SC(C)C(=O)Nc2cc[nH]n2)cc1 (centres unmarked) [MASM18]
% of FRET reduction [2]: −5.8%

CC(Sc1nnc(C2CC2)n1-c1ccccc1)C(=O)NC(N)=O (centres unmarked) [MASM19]
% of FRET reduction [2]: 2.7%

CC(Sc1nnc(-c2ccccc2)n1-c1ccccc1)C(=O)Nc1sc2c(c1C(N)=O)CCC2 (centres unmarked) [MASM20]
% of FRET reduction [2]: 10.1%

NC(=O)c1c(NC(=O)CSc2nnc(C3CC3)n2-c2ccccc2)sc2c1CCC2 [MASM21]
% of FRET reduction [2]: 27.1%

CC(Sc1nnc(-c2ccco2)n1-c1ccccc1)C(=O)Nc1sc2c(c1C(N)=O)CCC2 (centres unmarked) [MASM22]
% of FRET reduction [2]: 31.7%

Cc1ccc(-c2nnc(SC(C)C(=O)Nc3sc4c(c3C(N)=O)CCC4)n2-c2ccccc2)o1 (centres unmarked) [MASM23]
% of FRET reduction [2]: 13.9%

CC1CCc2c(sc(NC(=O)CSc3nnc(C4CC4)n3-c3ccccc3)c2C(N)=O)C1 (centres unmarked) [MASM24]
% of FRET reduction [2]: 18.9%

CC(Sc1nnc(C2CC2)n1Cc1ccccc1)C(=O)Nc1sc2c(c1C(N)=O)CCC2 (centres unmarked) [MASM25]
% of FRET reduction [2]: 32.2%

Cc1nnc(SCC(=O)Nc2sc3c(c2C(N)=O)CCC3)n1-c1ccccc1 [MASM26]
% of FRET reduction [2]: 37.0%

Cc1ccccc1-n1c(SCC(=O)Nc2sc3c(c2C(N)=O)CCC3)nnc1-c1ccncc1 [MASM27]
% of FRET reduction [2]: 30.0%

CC(Sc1nnc(C2CC2)n1-c1ccccc1)C(=O)Nc1sc2c(c1C#N)CCCCC2 (centres unmarked) [MASM28]
% of FRET reduction [2]: 8.0%

CC(Sc1nncn1-c1ccccc1)C(=O)Nc1sc2c(c1C(N)=O)CCC2 (centres unmarked) [MASM29]
% of FRET reduction [2]: 16.5%

C=CCn1c(SCC(=O)Nc2sc3c(c2C(N)=O)CCC3)nnc1C1CCCCC1 [MASM30]
% of FRET reduction [2]: 17.7%

CC(Sc1nnc(Cc2cccs2)n1C1CC1)C(=O)Nc1sc2c(c1C(N)=O)CCC2 (centres unmarked) [MASM31]
% of FRET reduction [2]: 30.7%

NC(=O)c1c(NC(=O)CSc2nc(C3CC3)n(-c3ccccc3)n2)sc2c1CCC2 [MASM32]
% of FRET reduction [2]: 37.0%

CC(c1nnc(SCC(=O)Nc2sc3c(c2C(N)=O)CCC3)n1-c1ccc(F)cc1)N(C)C (centres unmarked) [MASM33]
% of FRET reduction [2]: 31.9%

CC(Sc1nnc2c(Cl)cc(C(F)(F)F)cn12)C(=O)Nc1sc2c(c1C(N)=O)CCC2 (centres unmarked) [MASM34]
% of FRET reduction [2]: 19.4%

CC(Sc1nnc(Cc2ccccc2)n1C)C(=O)Nc1sc2c(c1C(N)=O)CCC2 (centres unmarked) [MASM35]
% of FRET reduction [2]: 25.9%

CC(Sc1nnc(-c2cccs2)n1-c1ccccc1)C(=O)Nc1sc2c(c1C(N)=O)CCC2 (centres unmarked) [MASM36]
% of FRET reduction [2]: 11.1%

CC(Sc1nccn1Cc1ccccc1)C(=O)Nc1sc2c(c1C(N)=O)CCC2 (centres unmarked) [MASM37]
% of FRET reduction [2]: 21.0%

CCn1c(Cc2ccccc2)nnc1SC(C)C(=O)Nc1sc2c(c1C(N)=O)CCC2 (centres unmarked) [MASM38]
% of FRET reduction [2]: 9.9%

CC(Sc1nnc(-c2ccco2)n1C1CCCCC1)C(=O)Nc1sc2c(c1C(N)=O)CCC2 (centres unmarked) [MASM39]
% of FRET reduction [2]: 9.9%

CC(Sc1nnnn1-c1ccc(O)cc1)C(=O)Nc1sc2c(c1C(N)=O)CCC2 (centres unmarked) [MASM40]
% of FRET reduction [2]: 22.6%

CC(Sc1nccn1-c1cccc(F)c1)C(=O)Nc1sc2c(c1C(N)=O)CCC2 (centres unmarked) [MASM41]
% of FRET reduction [2]: 10.2%

CC(C)Cn1c(SC(C)C(=O)Nc2sc3c(c2C(N)=O)CCC3)nnc1N1CCOCC1 (centres unmarked) [MASM42]
% of FRET reduction [2]: −1.4%

NC(=O)c1c(NC(=O)CSc2nnc(C3CC3)n2Cc2ccccc2)sc2c1CCC2 [MASM43]
% of FRET reduction [2]: 14.8%

Cn1c(SCC(=O)Nc2sc3c(c2C(N)=O)CCCC3)nnc1C1CC1 [MASM44]
% of FRET reduction [2]: 23.3%

CC(Sc1nnnn1C1CC1)C(=O)Nc1sc2c(c1C(N)=O)CCC2 (centres unmarked) [MASM45]
% of FRET reduction [2]: 26.4%
